According to patent US8410170B2, “Use of isothiocyanates compounds in treating prostatic diseases and skin cancer” (Wuxi JC Pharmaceutical Technology Co., Ltd., priority 2005, dated 2013):
Structures can show the parent of a compound that is named as a salt.

What was measured:
[1] = tested on: xenograft B16 mouse tumor; conditions: CTX 20 mg/kg/d i.p., 15 days
Description: The B16 mouse melanoma cells at exponential growth phase were suspended in PBS. […] Adjusted the suspension to a cell concentration of approximately 1×10^7/ml. 0.2 ml of the suspension were transplanted subcutaneously into right axillary subcutis for passaging.
Under sterile condition the xenograft B16 mouse tumor in mice was stripped from axillary subcutis. After cutting by scissors, the tumor with saline (1:3) was ground in a glass homogenizer. Monocell suspension was made with saline. […] Then adjusted the suspension to a cell density of approximately 1×10^7/ml with saline. 0.2 ml were transplanted subcutaneously into right axillary subcutis of each mouse. After transplanting, randomly divided the mouse into 5 groups, 12 each.
Tumors were taken out, sizes and weights were measured, and the percent of inhibitions were calculated.

[2] = tested on: non-bacterial prostatitis; assay: Therapeutic effects on non-bacterial prostatitis (Xiaozhiling injection into prostate); format: in vivo, SD rats; parameters: Histopathological score of prostatitis, Overall Average X ± SD: scale not given here
Description: Fifty-five male SD rats were randomly divided into 6 groups, 9 each, except the negative control group for which 10 animals were used. All animals from group 1 to 6 were anesthetized by injection of ketamine under sterile conditions and incised around 1.5 cm with a sterilized surgery scalpel at middle of abdomen. Animals in Group 1 were injected penicillin to prevent infection, and given distill water, 10 ml/kg, once a day, 5 times a week for 5 weeks. Groups from 2 to 6 injected 25% Xiaozhiling into left and right lobes of prostate, 0.1 ml for each lobe and sew the muscle and skin with #1 silk thread. The animals were then given penicillin to prevent infectious. Group 2 was served as negative control group in which animals were treated with distill water by gavage 24 hrs after the Xiaozhiling injection, once a day, 5 times a week for 5 weeks. Group 3 was served as positive control group in which animals were treated with GENURIN by gavage 24 hrs after the Xiaozhiling injection at dose of 60 mg/kg, once a day, 5 times a week (escaping weekend) for 5 weeks. […] On the last dosing day, urine samples from different groups that covered periods of 1, 2 and 3 hrs were collected.
Twenty-four hrs after the last dose, the animals were euthanized and weighed. Volume and weight of prostate were measured. The averages of the prostate weight/volume and organ coefficient (average weight of prostate/average of body weight) were calculated, and statistical analysis performed (t test).
(§1) Prostate tissues of animals from different groups were embedded with paraffin. The tissue sections were stained with H&E for histpathological examination by an anatomical pathologist.

[3] = tested on: human androgen independent prostate cancer PC-3 cells; assay: Xenograft of PC-3 in nude mice; format: in vivo, BALB/c nude mice; conditions: for Inhibition of PC-3 tumor growth: at terminal, diet containing 8 μM/g for 30 days
Description: Immunodeficient BALB/c nude mice, male, 5 weeks old, were purchased from Animal Center, Chinese Academy of Sciences, Shanghai, China. The animals were housed in an SPF animal lab. Human androgen independent prostate cancer PC-3 cells, in the form of a pellet (approximately 1×10^6 cells per animal), were mixed with a 50% volume of Matrigel and implanted s.c. in the flank of the animal. Twenty-four hrs after the transplant, the mice were randomly divided into two groups, eight animal each. One group served as untreated control and fed with regular AIN76 diet, and another one as treatment group in which AIN76 diet containing 8 μM/g of PEITC-NAC was provided. The animals were treated for 30 days, and tumor incidence and size were measured at day 7, 10, 22. Twenty-four hrs after the last administration, animals were euthanized, and body and tumors were weighted. Western blot was used to follow the possible change of AR expression.

GSTP1 = assay: Western blot to detect GSTP1 protein in LNCaP cells; format: cell-based, human; conditions: LNCaP cells exposed 24 hrs
Description: Western blot to detect GSTP1 protein (FIG. 1): […] The cells were harvested, washed and total cellular proteins were extracted as described previously (Wang, […], et al. […] Cancer Res 61(20): 7544-51, 2001). Fifty μg cellular extracts were separated on a SDS-PAGE, electro-transferred to nitrocellulose filters, and immunoblotted initially with antibodies against GSTP1. The same membranes were stripped and re-probed with β-actin for loading control. The result was recorded by ECL films.

androgen-induced BPH = assay: Therapeutic effects on BPH: Test Two (castrated rats, testosterone propionate; weights and histopathology); format: in vivo, SD rats; parameters: Histopathological score of BPH, Average X ± SD: scale not given here
Description: Thirty-six male SD rats were randomly divided into 4 groups, nine each. Group 1 was served as blank control group (pseudo-surgery control group) in which animals were under the same surgical procedures except no testis was sectioned and fed normally. Groups from 2 to 4 were served as treatment groups in which all animals were anesthetized using ketamine and castrated by removing both testises under sterile conditions. After the surgery, the penicillin was injected to prevent the animals from infection. One week later, the testosterone propionate was injected subcutaneously at dose of 5 mg/kg, once a day for a month. […] Group 3 was served as positive control group in which animals were given Proscar by gavage at dose of 0.1 mg/rat/day for a month beginning on the same day that the testosterone propionate was injected.
Twenty-four hrs after the last dose, the animals were euthanized and weighed. Volume and weight of prostate were measured. The averages of prostate volume/weight and organ coefficient (average weight of prostate/average of body weight) were calculated, and statistical analysis performed (t test).
as §1

BPH = assay: Therapeutic effects on BPH: Test One (castrated rats, testosterone propionate); format: in vivo, SD rats; conditions: estradiol 0.1 mg/rat s.c., one month
Description: Sixty male SD rats were randomly divided into 6 groups, ten each. The animals were anesthetized using ketamine and castrated by removing testis under sterile conditions. After the surgery, the penicillin was injected to prevent the animals from infection. One week later, the testosterone propionate was injected subcutaneously at dose of 1 mg/rat for a month, once a day. Group 1 was served as a negative control group, and the animals of group 1 were given saline orally without any active pharmaceutical ingredient for a month beginning on the same day the testosterone propionate was injected. Group 2 was served as positive control group in which animals were given estradiol subcutaneously at a dose of 0.1 mg/rat for a month beginning on the same day the testosterone propionate was injected. Groups from 3 to 6 was served as drug treatment groups in which animals were given tested articles on the same day the testosterone propionate was injected.
Twenty-four hrs after the last dosage, the animals were euthanized and weighed. Volume and weight of prostate were measured. The averages of volume/weight and organ coefficient (average weight of prostate/average of body weight) were calculated, and statistical analysis performed (t test).

[4] = GENURIN 60 mg/kg gavage, 5 weeks
[5] = GENURIN 60 mg/kg, last dosing day
[6] = Proscar 0.5 mg/kg gavage, one month

Compound: O=P1(N(CCCl)CCCl)NCCCO1 (centres unmarked) [CTX, Cyclophosphamide, reference compound]
- Average of Tumor Weight [1]: 0.76 ± 0.41 g
- Changes in Body Weight [1]: 5.07 ± 2.64 g
- Inhibition [1]: 66.23%

Compound: Cc1c(-c2ccccc2)oc2c(C(=O)OCCN3CCCCC3)cccc2c1=O [GENURIN, Flavoxate Hydrochloride, reference compound]
- Average Volume of Prostate [2, 4]: 0.69 ± 0.10 cm^3
- Average Weight of Prostate [2, 4]: 0.71 ± 0.09 g
- Inhibition of Organ-coefficient [2, 4]: 24.62%
- Organ Coefficient [2, 4]: 0.196 ± 0.03 %
- Bleeding: no. of animals with score 0 ([2]; GENURIN 60 mg/kg, 9 animals): 6
- Bleeding: no. of animals with score + ([2]; GENURIN 60 mg/kg, 9 animals): 3
- Bleeding: no. of animals with score ++ ([2]; GENURIN 60 mg/kg, 9 animals): 0
- Bleeding: no. of animals with score +++ ([2]; GENURIN 60 mg/kg, 9 animals): 0
- Chronic Inflammatory Infiltration: no. of animals with score 0 ([2]; GENURIN 60 mg/kg, 9 animals): 5
- Chronic Inflammatory Infiltration: no. of animals with score + ([2]; GENURIN 60 mg/kg, 9 animals): 4
- Chronic Inflammatory Infiltration: no. of animals with score ++ ([2]; GENURIN 60 mg/kg, 9 animals): 0
- Chronic Inflammatory Infiltration: no. of animals with score +++ ([2]; GENURIN 60 mg/kg, 9 animals): 0
- Congestion: no. of animals with score 0 ([2]; GENURIN 60 mg/kg, 9 animals): 4
- Congestion: no. of animals with score + ([2]; GENURIN 60 mg/kg, 9 animals): 5
- Congestion: no. of animals with score ++ ([2]; GENURIN 60 mg/kg, 9 animals): 0
- Congestion: no. of animals with score +++ ([2]; GENURIN 60 mg/kg, 9 animals): 0
- Edema: no. of animals with score 0 ([2]; GENURIN 60 mg/kg, 9 animals): 6
- Edema: no. of animals with score + ([2]; GENURIN 60 mg/kg, 9 animals): 2
- Edema: no. of animals with score ++ ([2]; GENURIN 60 mg/kg, 9 animals): 1
- Edema: no. of animals with score +++ ([2]; GENURIN 60 mg/kg, 9 animals): 0
- Fibrous Exudation: no. of animals with score 0 ([2]; GENURIN 60 mg/kg, 9 animals): 8
- Fibrous Exudation: no. of animals with score + ([2]; GENURIN 60 mg/kg, 9 animals): 1
- Fibrous Exudation: no. of animals with score ++ ([2]; GENURIN 60 mg/kg, 9 animals): 0
- Fibrous Exudation: no. of animals with score +++ ([2]; GENURIN 60 mg/kg, 9 animals): 0
- Histopathological score of prostatitis, Overall Average X ± SD ([2]; GENURIN 60 mg/kg, 9 animals): 1.83 ± 0.75
- Hyperblastosis: no. of animals with score 0 ([2]; GENURIN 60 mg/kg, 9 animals): 8
- Hyperblastosis: no. of animals with score + ([2]; GENURIN 60 mg/kg, 9 animals): 1
- Hyperblastosis: no. of animals with score ++ ([2]; GENURIN 60 mg/kg, 9 animals): 0
- Hyperblastosis: no. of animals with score +++ ([2]; GENURIN 60 mg/kg, 9 animals): 0
- Inflammatory Infiltration: no. of animals with score 0 ([2]; GENURIN 60 mg/kg, 9 animals): 7
- Inflammatory Infiltration: no. of animals with score + ([2]; GENURIN 60 mg/kg, 9 animals): 2
- Inflammatory Infiltration: no. of animals with score ++ ([2]; GENURIN 60 mg/kg, 9 animals): 0
- Inflammatory Infiltration: no. of animals with score +++ ([2]; GENURIN 60 mg/kg, 9 animals): 0
- urine, 1 h Period [2, 5]: 6.2 ± 1.3 mL
- urine, 2 h Period [2, 5]: 7.9 ± 1.9 mL
- urine, 3 h Period [2, 5]: 8.8 ± 1.2 mL

Compound: CC(=O)NC(CSC(=S)NCCc1ccccc1)C(=O)O (centres unmarked) [PEITC-NAC, N-acetylcysteine conjugate of phenethyl isothiocyanate]
- Incidence ([3]; at terminal (30 days)): 87.5%
- No. of Animals with Tumor ([3]; at terminal (30 days)): 7
- No. of Animals without Tumor ([3]; at terminal (30 days)): 1
- Inhibition of PC-3 tumor growth [3]: 53.3%
- Incidence ([3]; day 7): 75%
- No. of Animals without Tumor ([3]; day 7): 2
- No. of Animals with Tumor ([3]; day 7 after tumor implantation, diet containing 8 μM/g, 8 animals): 6
- Incidence ([3]; day 10): 75%
- No. of Animals with Tumor ([3]; day 10): 6
- No. of Animals without Tumor ([3]; day 10): 2
- Incidence ([3]; day 22): 87.5%
- No. of Animals with Tumor ([3]; day 22): 7
- No. of Animals without Tumor ([3]; day 22): 1
- expression of GSTP1 (Western blot) (GSTP1): effectively induce

Compound: CC(C)(C)NC(=O)[C@H]1CC[C@H]2[C@@H]3CC[C@H]4NC(=O)C=C[C@]4(C)[C@H]3CC[C@]12C [Proscar]
- Average Body Weight (androgen-induced BPH; Proscar 0.5 mg/kg (0.1 mg/rat/day) gavage, one month): 340 ± 30.5 g
- Average Volume of Prostate (androgen-induced BPH; [6]): 1.61 ± 0.16 cm^3
- Average Weight of Prostate (androgen-induced BPH; [6]): 1.30 ± 0.12 g
- Inhibition of Organ Coefficient (androgen-induced BPH; [6]): 11.63%
- Organ Coefficient (androgen-induced BPH; [6]): 0.38 ± 0.05%
- Acinar Density: no. of animals with score 0 (androgen-induced BPH; Proscar, 9 animals): 1
- Acinar Density: no. of animals with score + (androgen-induced BPH; Proscar, 9 animals): 2
- Acinar Density: no. of animals with score ++ (androgen-induced BPH; Proscar, 9 animals): 6
- Acinar Density: no. of animals with score +++ (androgen-induced BPH; Proscar, 9 animals): 0
- Connective tissue proliferation, or papillary hyperplasia: no. of animals with score 0 (androgen-induced BPH; Proscar, 9 animals): 8
- Connective tissue proliferation, or papillary hyperplasia: no. of animals with score + (androgen-induced BPH; Proscar, 9 animals): 1
- Connective tissue proliferation, or papillary hyperplasia: no. of animals with score ++ (androgen-induced BPH; Proscar, 9 animals): 0
- Connective tissue proliferation, or papillary hyperplasia: no. of animals with score +++ (androgen-induced BPH; Proscar, 9 animals): 0
- Enlargement of Lumen of Gland: no. of animals with score 0 (androgen-induced BPH; Proscar, 9 animals): 3
- Enlargement of Lumen of Gland: no. of animals with score + (androgen-induced BPH; Proscar, 9 animals): 3
- Enlargement of Lumen of Gland: no. of animals with score ++ (androgen-induced BPH; Proscar, 9 animals): 3
- Enlargement of Lumen of Gland: no. of animals with score +++ (androgen-induced BPH; Proscar, 9 animals): 0
- Histopathological score of BPH, Average X ± SD (androgen-induced BPH; Proscar, 9 animals): 3.33 ± 1.11
- Secretions of Gland: no. of animals with score 0 (androgen-induced BPH; Proscar, 9 animals): 5
- Secretions of Gland: no. of animals with score + (androgen-induced BPH; Proscar, 9 animals): 2
- Secretions of Gland: no. of animals with score ++ (androgen-induced BPH; Proscar, 9 animals): 2
- Secretions of Gland: no. of animals with score +++ (androgen-induced BPH; Proscar, 9 animals): 0
- lumen of prostatic gland and secretary materials in the lumen, versus untreated BPH tissues (typical slide) (androgen-induced BPH; Proscar, FIG. 6.3): reduced
- density of prostatic acinars, versus untreated BPH tissues (typical slide) (androgen-induced BPH; Proscar, FIG. 6.4): reduced

Compound: C[C@]12CC[C@@H]3c4ccc(O)cc4CC[C@H]3[C@@H]1CC[C@@H]2O [estradiol, reference compound]
- Average Weight of Prostate (BPH): 0.73 grams
- Organ Coefficient (BPH): 0.23%

Compound: N-acetylcysteine conjugate of phenethyl isothiocyanate [PEITC-NAC]
- Inhibition of PC-3 tumor growth [3]: 53.3%
